From article PMC9067930 (Science Advances, 2022)
Read-outs that look alike come from different tables or passages of the source. No end group written: not given here.

What was measured:
Y4R [1] = conditions: cited from earlier work
Y2R [2] = conditions: cited from earlier work
Y1R = conditions: cited from earlier work
Y4R [3] = conditions: cited from earlier work; remark: listed apart in the source
[4] = target: Nluc-Y4R, wild type (human) (UniProt P50391); assay: FRET or BRET
Nluc-Y4R Q^5.46A (human) = Nluc-Y4R Q^5.46A (human) (UniProt P50391); assay: FRET or BRET
[5] = target: Nluc-Y4R, wild type (human) (UniProt P50391); assay: FRET or BRET; remark: listed apart in the source
Y2R [6] = target: T1, Y2R (Homo sapiens, UniProt P49146); format: binding; conditions: high- and low-affinity state
T1 sequence (P49146 1-381): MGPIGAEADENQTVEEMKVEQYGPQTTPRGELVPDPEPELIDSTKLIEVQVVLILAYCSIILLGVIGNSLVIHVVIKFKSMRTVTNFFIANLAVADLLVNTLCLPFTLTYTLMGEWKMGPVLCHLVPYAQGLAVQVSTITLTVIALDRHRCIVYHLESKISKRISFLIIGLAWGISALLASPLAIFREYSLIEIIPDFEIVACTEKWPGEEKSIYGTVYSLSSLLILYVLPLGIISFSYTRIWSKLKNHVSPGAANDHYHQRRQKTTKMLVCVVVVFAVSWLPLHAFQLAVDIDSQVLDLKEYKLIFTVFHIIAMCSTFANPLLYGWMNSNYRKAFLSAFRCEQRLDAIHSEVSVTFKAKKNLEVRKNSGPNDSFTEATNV

[7] = target: Nluc-Y1R, wild type (human) (UniProt P25929); assay: FRET or BRET
Sequence of Nluc-Y1R, wild type (human) (P25929 whole entry): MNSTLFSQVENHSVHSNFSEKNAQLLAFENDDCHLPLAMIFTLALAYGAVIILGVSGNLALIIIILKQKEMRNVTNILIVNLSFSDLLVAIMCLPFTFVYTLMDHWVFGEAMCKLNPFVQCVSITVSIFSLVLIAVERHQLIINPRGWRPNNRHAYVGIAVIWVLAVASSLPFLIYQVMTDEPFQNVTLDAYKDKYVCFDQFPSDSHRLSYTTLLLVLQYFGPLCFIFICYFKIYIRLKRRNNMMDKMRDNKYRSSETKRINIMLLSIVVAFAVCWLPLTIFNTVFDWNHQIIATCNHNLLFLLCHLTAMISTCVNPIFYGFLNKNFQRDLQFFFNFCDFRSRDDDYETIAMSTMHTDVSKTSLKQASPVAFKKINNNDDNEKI

Sequence of Nluc-Y4R, wild type (human) (P50391 whole entry): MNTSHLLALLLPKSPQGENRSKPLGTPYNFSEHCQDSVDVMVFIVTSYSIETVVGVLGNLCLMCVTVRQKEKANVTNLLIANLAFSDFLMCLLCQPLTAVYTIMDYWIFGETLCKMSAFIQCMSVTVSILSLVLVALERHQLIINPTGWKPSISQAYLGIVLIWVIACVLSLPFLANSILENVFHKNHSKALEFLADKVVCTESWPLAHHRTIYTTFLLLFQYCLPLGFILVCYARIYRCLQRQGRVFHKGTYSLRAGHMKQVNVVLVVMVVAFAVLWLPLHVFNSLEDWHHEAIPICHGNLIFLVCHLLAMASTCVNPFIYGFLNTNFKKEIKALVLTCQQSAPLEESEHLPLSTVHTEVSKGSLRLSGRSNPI
Sequence of Nluc-Y4R Q^5.46A (human) (P50391 whole entry): as above

In the case of NPY mutant T32A, the binding affinity (Y4R [1]) is given as “loss of binding affinity”, the binding affinity (Y2R [2]) is given as “loss of binding affinity” and the binding affinity (Y1R; Y1R) is given as “loss of binding affinity”.

In the case of “NPY(22–36): N-terminally truncated NPY analog”, the affinity (Y2R [2]) is listed as “subnanomolar affinity”.

For “NPY(3–36): N-terminally truncated NPY analog”, the affinity (Y2R [2]) is listed as “subnanomolar affinity” and the “reduction of affinity and activity, respectively” value (Y1R; Y1R) is listed as “more than 50 fold”.

In the case of “PP(2–36): N-terminally truncated PP (PLEPVYPGDNATPEQMAQYAADLRRYINMLTRPRY; ends and bridges not checked; UniProt P01298 31-65, looked up, fragment)”, the functional impairment (Y4R [3]) is given as “limited functional impairment”.

K22(TAMRA),Nle17,30-PP (peptide) gave a KD,1 (high-affinity state) [4] of 26 nM, a fold reduction of affinity against wild-type Y4R (Nluc-Y4R Q^5.46A (human)) of 100 fold and a KD,1 (high-affinity state) [5] of 18 nM.

In the case of Q34P-substituted analog of NPY, the binding (Y4R [1]) is listed as “improved binding”, the binding (Y2R [2]) is listed as “not tolerated” and the affinity (Y1R; Y1R) is listed as “wild-type affinity”. The binding affinity (Y1R; Y1R, exchange of Q34 by proline) was “unchanged binding affinity”.

In the case of “PYY: 36-residue C-terminally amidated neuropeptide”, the binding (Y1R; Y1R F286A) is listed as “marked loss”.

In the case of “NPY(13–36): N-terminally truncated NPY analog”, the affinity (Y2R [2]) is listed as “subnanomolar affinity”.

For NPY(2–36): truncated NPY analog, the “reduction of affinity and activity, respectively” value (Y1R; Y1R) is given as “more than 50 fold”.

In the case of CCN(CC)C(=O)C(c1ccccc1)N1CCN(c2ccc(NC(=O)c3ccccc3-c3cccnc3)cc2F)CC1 (stereo not drawn) [JNJ-31020028], the “affinity (Ki) in both states” value (Y2R [6]) is reported as “essentially the same affinity”.

For Q34G variant of NPY, the “loss of binding affinity compared to NPY” value (Y1R; Y1R) is listed as 15 fold.

For “NPY(18–36): N-terminally truncated NPY analog”, the affinity (Y2R [2]) is listed as “subnanomolar affinity”.

K18(TAMRA)-NPY (peptide) showed a KD,2 (low-affinity state) [7] of 126 nM.
